Measured values: patent US11034653B2, “Crystal form of estrogen receptor inhibitor and preparation method therefor” (LUOXIN PHARMACEUTICAL (SHANGHAI) CO., LTD., priority 2017, dated 2021)
Blank lines part the entries; values can stand above or below the compound they belong to.

Legend:
[1] = Hygroscopicity study by dynamic vapor sorption (DVS); type: physicochemical; details: 25° C./80% RH
Procedure: Dynamic Vapor Sorption (DVS)
Instrument model: SMS DVS Advantage dynamic vapor sorption analyzer
Test conditions: samples (10-15 mg) were disposed in the DVS sample tray for testing.
The detailed DVS parameters were as follows:
Balance: dm/dt=0.01%/min (shortest: 10 min, longest: 180 min)
Drying: drying for 120 min at 0% RH
RH (%) test step range: 0%-90%-0%
The hygroscopicity evaluation is classified as follows:
SMS DVS Advantage dynamic vapor sorption analyzer

[2] = Solid stability test under high humidity and light irradiation conditions (XRPD, HPLC); type: physicochemical
Procedure: High Performance Liquid Chromatograph (HPLC)
The bottles containing samples placed under high humidity condition were sealed with aluminum foil. Small holes were made in the aluminum foil to ensure that the samples can fully contact with the ambient air. The samples were tested on the 10th day. The bottles containing samples placed under light condition were left open and the samples were exposed to a light source, and tested after being irradiated enough energy. The test results were compared with the initial test results on day 0.

[3] = Long-term crystal form stability test under high temperature and high humidity conditions (XRPD); type: physicochemical; details: 40° C., 75% RH, 10th day and 31th day
[4] = cited from earlier work
[5] = tested on: breast cancer patients; details: intramuscular injection; cited from earlier work

- Hygroscopicity classification [1]: almost non-hygroscopic
- ΔW, weight increase caused by hygroscopy ([1]; DVS): 0.1687%
- Crystal form (XRPD) ([2]; 0 day): Crystal form A
- Purity (%) ([2]; 0 day): 96.99%
- Related substance at relative retention time 0.97 (HPLC) ([2]; 0 day): 0.21
- Related substance at relative retention time 1.02 (HPLC) ([2]; 0 day): 0.36
- Related substance at relative retention time 1.05 (HPLC) ([2]; 0 day): 0.30
- Total content of related substances (%) ([2]; 0 day): 0.87%
- Crystal form (XRPD) ([2]; High humidity (room temperature/relative humidity 92.5%, exposed), 10th day): Crystal form A
- Related substance at relative retention time 0.97 (HPLC) ([2]; High humidity, 10 days): 0.22
- Related substance at relative retention time 1.02 (HPLC) ([2]; High humidity, 10 days): 0.23
- Related substance at relative retention time 1.05 (HPLC) ([2]; High humidity, 10 days): 0.31
- Total content of related substances (%) ([2]; High humidity, 10 days): 0.77%
- Purity (%) ([2]; Light irradiation): 101.09%
- Related substance at relative retention time 0.88 (HPLC) ([2]; Light irradiation): 0.05
- Related substance at relative retention time 0.97 (HPLC) ([2]; Light irradiation): 0.22
- Related substance at relative retention time 0.98 (HPLC) ([2]; Light irradiation): 0.17
- Related substance at relative retention time 1.02 (HPLC) ([2]; Light irradiation): 0.23
- Related substance at relative retention time 1.04 (HPLC) ([2]; Light irradiation): 0.13
- Related substance at relative retention time 1.05 (HPLC) ([2]; Light irradiation): 0.17
- Total content of related substances (%) ([2]; Light irradiation): 0.98%
- Crystal form (XRPD) ([2]; Light irradiation (1ICH, exposed)): Crystal form A
- Solid stability (conclusion) ([2]; high humidity and light irradiation condition): stable
- Crystal form stability (conclusion) [3]: stable
SMILES: CC/C(=C(/c1ccc(/C=C/C(=O)O)cc1)c1[nH]c2ccccc2c1Cl)c1ccc(F)cc1Cl

SMILES: C[C@]12CC[C@@H]3c4ccc(O)cc4C[C@@H](CCCCCCCCC[S+]([O-])CCCC(F)(F)C(F)(F)F)[C@H]3[C@@H]1CC[C@@H]2O (some centres unmarked) [fulvestrant]
- oral bioavailability [4]: zero
- breast cancer patients who have shown a clinical response [5]: about 50%
